Results on twelve compounds are retold here after patent US10526660B2, “Methods for evaluating and treating Waldenstrom's macroglobulinemia” (Dana-Farber Cancer Institute, Inc., priority 2013, dated 2020).

Assay [1] relates to BCWM.1 WM cells. To be noted: CXCR4 S338X transduced cells; 30 nM AMD3100; p<0.005. From the text:
Five days after transduction, GFP positive cells were sorted and used for functional studies.

Assay [2] deals with phospho-AKT, phospho-ERK and phospho-BTK. The assay can be described thus: SDF-1a triggered AKT, ERK and BTK signaling (phosphoflow, immunoblotting) in transduced BCWM.1 cells. Format: cell-based.
The test system of assay [3] is BCWM.1 and MWCL-1 cells. To be noted: CXCR4^S338X expressing cells; co-treatment ibrutinib and AMD3100 30 uM. The protocol:
(§1) Five days after transduction, GFP positive cells were sorted and used for functional studies. Surface expression of CXCR4 was determined by flow cytometric analysis using a PE-conjugated anti-CXCR4 monoclonal antibody (BD Biosciences, San Jose Calif.). Transduced cell lines were stimulated with or without SDF-1a (10-100 nM), and cell surface expression of CXCR4 determined on CXCR4^WT and S338X transduced cells. CXCR4 expression levels were calculated as: [(receptor geometric mean fluorescence intensity [MFI] of treated cells-MFI of isotype IgG control)/(receptor geometric MFI of unstimulated cells-MFI of isotype IgG control)]×100.

Another assay relates to CXCR4^S338X BCWM.1 cells. The assay can be described thus: PARP and caspase 3 cleavage by immunoblotting (apoptosis), BCWM.1. Format: cell-based. Conditions: for level of SDF-1a mediated rescue from PARP and caspase 3 cleavage: agents at EC50 dose ranges, 6 hours, SDF-1a 20 nM. A general note: In western blotting, separated proteins are transferred to a membrane and probed.

A further assay concerns CXCR4^S338X MWCL-1 cells. The assay can be described thus: PARP and caspase 3 cleavage by immunoblotting (apoptosis), MWCL-1. Format: cell-based. Conditions: for level of SDF-1a mediated rescue from PARP and caspase 3 cleavage: agents at EC50 dose ranges, 6 hours, SDF-1a 20 nM.
The subject of assay [4] is BCWM.1 and MWCL-1 cells. The assay can be described thus: Annexin V staining (apoptosis), Example 5. Format: cell-based. To be noted: 18 hours.
The subject of assay [5] is BCWM.1 WM cells. The assay can be described thus: Annexin V staining (apoptosis) of CXCR4 frameshift/nonsense mutant expressing BCWM.1 cells, Example 6. The assay is classed as cell-based. To be noted: CXCR4^T311fs and CXCR4^S344fs cells; for SDF-1a rescue of ibrutinib or idelalisib treated cells: MK-2206 0.5 uM, AS-703026 0.25 uM, 18 hours. From the text:
CXCR4^WT, CXCR4^FS, CXCR4^S338X cDNAs were subcloned into plenti-IRES-GFP vector, and transduced using a lentiviral based strategy into BCWM.1 WM cells as before (Cao et al, 2014; Yang et al, 2013). Frameshift mutations proximal and distal to CXCR4^S338X that were identified in WM patients by WGS were studied (FIG. 11). […] The nonsense mutation CXCR4^S338X resulted from C>G change at 136872485 (Hunter et al, 2013). Five days after transduction, GFP positive cells were sorted and used for functional studies. Surface CXCR4 expression was determined at baseline, and following stimulation for 30 minutes with SDF-1a (10-100 nM) as before (Cao et al, 2014). Phosphoflow experiments were performed using conjugated antibodies to phospho-ERK1/2 (T^202/Y^204) and phospho-AKT(S^473) (BD Phosflow) as previously described (Cao et al, 2014). […] Survival studies related to AKT and ERK were performed in the presence or absence AKT (MK-2206, 0.5 uM) or MEK (AS-703026, 0.25 uM) specific inhibitors (Selleck Chemicals, Houston Tex.) as previously reported (Cao et al, 2014).

A further assay has as its system WHIM patients. Conditions: WHIM patients treated daily for 6 months; cited from earlier work.
A further assay has as its system CXCR4. As to the kind of experiment: Cell surface CXCR4 expression by flow cytometry in transfected WM cells. Format: cell-based. The protocol:
as §1
Background: Flow cytometry measures light scatter and fluorescence of single cells or particles in a stream.

The next assay deals with pAKT and pERK. As to the kind of experiment: Immunohistochemical staining for pAKT and pERK in bone marrow of WM patients on ibrutinib. The assay is classed as in vivo, human.
Where [6] appears, read: CXCR4^WT and CXCR4^S338X expressing BCWM.1 cells, pre-treatment 2 hours, AMD3100 30 uM or pertussis toxin 500 ng, SDF-1a 20 nM.
The mark [7] stands for this setting: CXCR4^S338X BCWM.1 and MWCL-1 cells.
Setting [8] is: SDF-1a cultured CXCR4^S338X BCWM.1 cells, AS-703026 0.25 uM, AZD-6244 0.5 uM, U0126 5.0 uM.

Where two headings read alike, the source gives them in different places.

In the case of `c1cc(CN2CCCNCCNCCCNCC2)ccc1CN1CCCNCCNCCCNCC1` [AMD3100], in the assay on BCWM.1 WM cells [1], the “block of CXCL12 rescue from ibrutinib growth effect” value is “rescue could be blocked”. Moreover, in assay [2] (setting [6]), the “SDF-1a triggered AKT and ERK activation” value was “blocked both AKT and ERK activation”. Also, the “reversal of SDF-1a rescue from ibrutinib induced apoptosis” value in the assay on BCWM.1 and MWCL-1 cells [3] is “could be reversed”. In the assay with CXCR4^S338X BCWM.1 cells (all agents (bendamustine, fludarabine, bortezomib, idelalisib), AMD3100 30 uM), the “reversal of SDF-1a mediated rescue by co-treatment with AMD3100” value was “reversal of rescue”. Besides, in the assay with CXCR4^S338X MWCL-1 cells (idelalisib, fludarabine and bortezomib treated cells, AMD3100 30 uM), the “reversal of SDF-1a rescue by co-treatment with AMD3100” value is on record as “reversal of SDF1-a rescue”. Also, the “Annexin V staining: effect of adding AMD3100 to cells treated with ibrutinib and SDF-1a” value with BCWM.1 and MWCL-1 cells [4] is given as “restoration of apoptotic changes”. In the assay on BCWM.1 and MWCL-1 cells [4] (setting [7]), the “Annexin V studies: effect of AMD3100 on SDF-1a rescue of idelalisib treated cells” value is “reversal of rescue”. The “effect of concurrent CXCR4 antagonist on ibrutinib apoptosis in SDF-1a exposed cells” value in the assay on BCWM.1 WM cells [5] (CXCR4^S338X, plerixafor 30 uM) is given as “restored the pro-apoptotic effects of ibrutinib”. In the assay on WHIM patients, the myelokathexis related leukopenia entry was “reversed myelokathexis related leukopenia”.
Regarding `O=C(NC[C@H](O)CO)c1ccncc1Nc1ccc(I)cc1F` [AS-703026], the “inhibitory activity by western blot analysis for pERK (T202/Y204)” value (“inhibitory activity … (T202/Y204)” below) in assay [2] (setting [8]) is given as “confirmed”. The “SDF-1a rescue of ibrutinib or idelalisib treated cells” value in the assay on BCWM.1 WM cells [5] is “attenuated SDF-1a rescue”.
For the compound `Cn1cnc2c(F)c(Nc3ccc(Br)cc3Cl)c(C(=O)NOCCO)cc21` [AZD-6244], in [2] (setting [8]), the “inhibitory activity … (T202/Y204)” value is reported as “confirmed”.
Regarding `NC1(c2ccc(-c3nc4ccn5c(=O)[nH]nc5c4cc3-c3ccccc3)cc2)CCC1` [MK-2206], in [2] (SDF-1a cultured CXCR4^S338X BCWM.1 cells, 0.5 uM), the “inhibitory activity by western blot analysis for pAKT (S473)” value was “confirmed”. Also, in the assay with BCWM.1 WM cells [5], the “SDF-1a rescue of ibrutinib or idelalisib treated cells” value is listed as “attenuated SDF-1a rescue”.
On to `N#CC(=C(/N)Sc1ccccc1N)/C(C#N)=C(\N)Sc1ccccc1N` [U0126], for which, in [2], the “inhibitory activity … (T202/Y204)” value is “confirmed”.
Regarding `Cn1c(CCCC(=O)O)nc2cc(N(CCCl)CCCl)ccc21` [bendamustine], the figures for the “level of SDF-1a mediated rescue from PARP and caspase 3 cleavage” value in the assay on CXCR4^S338X BCWM.1 cells and with CXCR4^S338X MWCL-1 cells were “moderate” and “little to no SDF-1a rescue”, respectively.
In the same order, the values of `CC(C)C[C@H](NC(=O)[C@H](Cc1ccccc1)NC(=O)c1cnccn1)B(O)O` [bortezomib] are “moderate” and “lesser levels of rescue”.
In the same order, the values of `Nc1nc(F)nc2c1ncn2[C@@H]1O[C@H](CO)[C@@H](O)[C@@H]1O` [fludarabine] are “moderate” and “lesser levels of rescue”.
Take `C=CC(=O)N1CCC[C@@H](n2nc(-c3ccc(Oc4ccccc4)cc3)c3c(N)ncnc32)C1` [ibrutinib, 1-[(3R)-3-[4-amino-3-(4-phenoxyphenyl)pyrazolo[3,4-d]pyrimidin-1-yl]piperidin-1-yl]prop-2-en-1-one]: in assay [2], the BTK signaling entry is listed as “blocked BTK signaling”; the “SDF-1a triggered AKT and ERK activation” value is given as “attenuated”; the “SDF-1a triggered AKT and ERK signaling” value is on record as “did not show attenuation”. Further, the “cell surface CXCR4 expression following ibrutinib treatment” value with CXCR4 (CXCR4^WT or CXCR4^S338X expressing WM cells, 0.5, 1, 2, and 6 hours) is “little or no significant changes”. In addition, in the assay with CXCR4 (vector only, CXCR4^WT and CXCR4^S338X transfected WM cells, addition of ibrutinib), the “SDF-1a related changes in cell surface CXCR4 expression” value was “did not affect”. For the same compound, the “Annexin V staining: SDF-1a effect on ibrutinib mediated apoptotic changes” value in the assay on BCWM.1 and MWCL-1 cells [4] (ibrutinib plus SDF-1a) was “rescue of ibrutinib mediated apoptotic changes by SDF-1a”. In the assay with pAKT and pERK (CXCR4^WHIM patients, 6 months), the “pAKT staining in bone marrow on continuous ibrutinib therapy” value is given as “remained robust without any changes from baseline”. In addition, the “pAKT staining in bone marrow on continuous ibrutinib therapy” value in the assay with pAKT and pERK (CXCR4^WT patients) was “marginal pAKT staining”. For the same compound, the “pERK staining in bone marrow despite ibrutinib therapy” value in the assay with pAKT and pERK (all patients, regardless of CXCR4 mutation status) was “low levels of pERK staining”.
Consider `CC[C@H](Nc1ncnc2[nH]cnc12)c1nc2cccc(F)c2c(=O)n1-c1ccccc1` [idelalisib], for which the “level of SDF-1a mediated rescue from PARP and caspase 3 cleavage” value with CXCR4^S338X BCWM.1 cells is given as “strong”; in the assay with CXCR4^S338X MWCL-1 cells, “moderate level of rescue”. Also, in the assay with BCWM.1 and MWCL-1 cells [4] (setting [7]), the “Annexin V studies: SDF-1a rescue” value was “pronounced rescue by SDF-1a”.
For the compound AZD-5363, in assay [2] (CXCR4^S338X BCWM.1 cells, 0.5 uM), the “inhibitory effect on AKT (phospho-activity of downstream targets GKS3β and pS6)” value is reported as “confirmed by inhibition of the phospho-activity”.
Regarding pertussis toxin, in assay [2] (setting [6]), the “SDF-1a triggered AKT and ERK activation” value is “blocked both AKT and ERK activation”.
